Reference: PubChem BioAssay (NCI)
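Five concentrations, 48 hours, 96-well plates. The concentration for full growth arrest is given as TGI.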

Tested on: P388/ADR leukemia
Assay: NCI tumour cell line growth inhibition, 48 h

Row | Structure (SMILES) | TGI [µM]
1 | CC1(C)N=C(N)N=C(N)N1c1ccc(CCCCc2ccc(S(=O)(=O)F)cc2Cl)c(Cl)c1 | 7.56
2 | O=C(O)CCCc1ccc(N(CCCl)CCCl)cc1 | 154
